Source: patent US11028051B2, “Tetrahydroquinoline-based bromodomain inhibitors” (St. Jude Children's Research Hospital, priority 2016, dated 2021)
Like-named read-outs stand apart in the source and are kept apart here.

Assays:
HDMB03 cells = assay: cell viability, CellTiter-Glo; assay type: cell-based, human; conditions: Homo sapiens
Procedure: Human G3 medulloblastoma or mouse SHH medulloblastoma cells were grown as neurospheres in supplemented neurobasal medium, as previously described (Kawauchi et al., 2012.)
(§1) After 7 days of treatment, an equal volume of CellTiter-Glo reagent (G7572, Promega) was added and the luminescence signal was measured using an automated Envision plate reader (Perkin-Elmer). Luminescence data were normalized by log10 transformation prior to calculating the percent inhibition using the following equation:
(§2) 100*(negative control mean −compound value)/(negative control mean −positive control mean).
High-throughput assay data were analyzed using Robust Interpretation of Screening Experiments (RISE) application written in Pipeline Pilot (Accelrys, v. 8.5) and the R program (R Development Core Team).
Dose-response curves were calculated by regressing the median percent inhibition obtained over triplicate experiments to log 10-transformed concentrations. Non-linear regression was then performed using the R drc package with the four parameter log-logistic function (LL2.4) (Ritz and Streibig, 2009). Curves were fit under three different constraints: (1) all parameters free, (2) high response fixed to 100, (3) low response fixed to 0; and the best fit from these three nested models was selected using the anova.drc function.

MV-4-11 = assay: anti-proliferative activity; assay type: cell-based; conditions: Homo sapiens, MV4-11; Table 7
Procedure: as §1, §2

BRDT(1) = BRDT(1) (Homo sapiens (Human), UniProt Q58F21); assay: BROMOscan KD determination; assay type: binding; conditions: Table 10
Excerpt: (§3) DiscoverX® can screen compounds against all ˜42 bromodomains (a service called BROMOscan) and perform follow-up KD determination. This service is considered the industrial standard for bromodomain inhibitor comparisons. […] Dots are symbolic of inhibition of the compound at this concentration; the larger the size of the dot, the greater the activity of the compound. […] Though these compounds are selective for the BET family, the selectivity within the BET family is poor. The results of a competitive binding experiment between compounds 19 (left), 41 (center), and 56 (right) (at a single concentration, 1 μM) and a control for each of the bromodomains are shown in FIG. 5.

BRDT(2) = BRDT(2) (Homo sapiens (Human), UniProt Q58F21); assay: BROMOscan KD determination; assay type: binding
Excerpt: as §3

BRD2(1) = BRD2(1) (Homo sapiens (Human), UniProt P25440); assay: BROMOscan KD determination; assay type: binding; conditions: Table 10
Sequence of BRD2(1) (P25440 74-180): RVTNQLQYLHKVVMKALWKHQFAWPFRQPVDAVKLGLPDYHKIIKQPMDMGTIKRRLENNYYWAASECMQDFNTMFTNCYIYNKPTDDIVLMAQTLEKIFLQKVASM
Excerpt: as §3

BRD2(2) = BRD2(2) (Homo sapiens (Human), UniProt P25440); assay: BROMOscan KD determination; assay type: binding
Sequence of BRD2(2) (P25440 344-453): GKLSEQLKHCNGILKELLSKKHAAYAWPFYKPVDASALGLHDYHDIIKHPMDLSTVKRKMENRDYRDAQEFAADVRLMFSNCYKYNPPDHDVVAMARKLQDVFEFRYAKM
Excerpt: as §3

BRD2-BD2 [1] = target: T1, BRD2-BD2 (Homo sapiens (Human), UniProt P25440); assay: competitive TR-FRET assay, BET-BD with acetylated peptide ligand; assay type: binding; conditions: for IC50: Table 2, inhibitor potency by TR-FRET; for BD1/BD2: Table 2, ratio BRD2-BD1/BRD2-BD2
Procedure: (§4) Inhibitor potency was determined using a competitive TR-FRET assay as detailed herein, measuring interaction of the respective BET-BD with an acetylated peptide ligand (Table 2).
Target sequence in this assay (P25440 344-453): as above

BRD2-BD1 [2] = target: T2, BRD2-BD1 (Homo sapiens (Human), UniProt P25440); assay: as above; assay type: binding; conditions: for IC50: Table 2, inhibitor potency by TR-FRET
Procedure: as §4
Target sequence in this assay (P25440 74-180): as the sequence (P25440 74-180) above

BRDT = BRDT (Homo sapiens, UniProt Q58F21); assay: as above; assay type: binding; conditions: for IC50: Table 2, inhibitor potency by TR-FRET
Procedure: as §4

BRD3-BD1 = BRD3-BD1 (Homo sapiens (Human), UniProt Q15059); assay: as above; assay type: binding; conditions: for IC50: Table 2, inhibitor potency by TR-FRET
Sequence of BRD3-BD1 (Q15059 34-140): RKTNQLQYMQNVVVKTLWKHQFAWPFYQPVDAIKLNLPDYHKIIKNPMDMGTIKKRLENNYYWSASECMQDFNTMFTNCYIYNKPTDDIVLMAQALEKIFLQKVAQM
Procedure: as §4

BRD3(1) = BRD3(1) (Homo sapiens (Human), UniProt Q15059); assay: BROMOscan KD determination; assay type: binding; conditions: Table 10
Sequence of BRD3(1) (Q15059 34-140): as above
Excerpt: (§5) DiscoverX® can screen compounds against all ˜42 bromodomains (a service called BROMOscan) and perform follow-up KD determination. This service is considered the industrial standard for bromodomain inhibitor comparisons.

BRD3(2) = BRD3(2) (Homo sapiens (Human), UniProt Q15059); assay: BROMOscan KD determination; assay type: binding
Sequence of BRD3(2) (Q15059 306-415): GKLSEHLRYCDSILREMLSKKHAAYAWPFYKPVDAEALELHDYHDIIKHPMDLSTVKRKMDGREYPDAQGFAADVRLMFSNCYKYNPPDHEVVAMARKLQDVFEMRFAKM
Excerpt: as §5

BRD4(1) = BRD4(1) (Homo sapiens (Human), UniProt O60885); assay: BROMOscan KD determination; assay type: binding; conditions: Table 10
Excerpt: as §5

BRD4(2) = BRD4(2) (Homo sapiens (Human), UniProt O60885); assay: BROMOscan KD determination; assay type: binding
Excerpt: as §5

[3] = test system: c-Myc expression in HDMB03 cells; assay: c-Myc expression inhibition, high content microscopy (HCM); assay type: cell-based, human; conditions: Homo sapiens
BRD2-BD2 [4] = target: T1, BRD2-BD2; assay: isothermal titration calorimetry analysis of binding; conditions: ITC; for ΔG / ΔH / −TΔS: BRD2-BD2; for Kd: BRD2-BD2, average of 3 experiments, read-out: average Kd
Procedure: (§6) b. Isothermal Titration Calorimetry Analysis of Binding to Brd2-BD1 and Brd2-BD2
(§7) Binding of compounds to BRD2 was monitored using an ITC200 (Microcal, Piscataway, N.J.). Either Brd2.1 (74-194) or Brd2.2 (348-455) was dialyzed overnight into a solution containing 50 mM HEPES, pH 7.0 and 150 mM NaCl at 15° C. Enzyme concentrations were determined after dialysis by absorbance at 280 nm using a molar extinction coefficient (ε280) of 25,565 M^−1 cm^−1 (2.1) or 16,055 M^−1 cm^−1 (2.2). Enzyme was diluted in dialysis buffer and 39.6 μL was loaded into the syringe. Compounds were dissolved in the same dialysis buffer and loaded in the cell to a volume of 204 μL. Injections were carried out by serial injections of enzyme; first, 1 injection of 1 μL, followed by 19 incremental injections of 2 μL, at 120 second intervals. Data from the first injection was excluded, due to pre-equilibration mixing between the contents of cell and syringe at the syringe tip. Peak areas were integrated, normalized, and then fitted by non-linear regression using the independent sites model in Origin™ (version 2.3.6, Microcal, Piscataway, N.J.).
Target sequence in this assay (P25440 348-455): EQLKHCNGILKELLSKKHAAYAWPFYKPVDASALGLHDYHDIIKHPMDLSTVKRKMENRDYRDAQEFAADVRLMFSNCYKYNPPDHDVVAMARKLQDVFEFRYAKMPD

BRD2-BD1 [5] = target: T2, BRD2-BD1; assay: as above; conditions: ITC; for ΔG / ΔH / −TΔS: BRD2-BD1; for Kd: BRD2-BD1, average of 3 experiments, read-out: average Kd
Procedure: as §6, §7
Target sequence in this assay (P25440 74-194): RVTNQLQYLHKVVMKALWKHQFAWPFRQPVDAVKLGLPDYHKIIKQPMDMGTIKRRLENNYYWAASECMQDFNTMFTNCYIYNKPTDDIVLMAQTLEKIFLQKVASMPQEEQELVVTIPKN

BRD2-BD2 [6] = assay: as above; conditions: ITC Kd BRD2-BD1 / BRD2-BD2
Procedure: as §6, §7

BRD4-BD2 = BRD4-BD2 (Homo sapiens (Human), UniProt O60885); assay: competitive TR-FRET assay, BET-BD with acetylated peptide ligand; assay type: binding; conditions: Table 2, inhibitor potency by TR-FRET
Procedure: as §4

BRD4-BD1 = BRD4-BD1 (Homo sapiens (Human), UniProt O60885); assay: as above; assay type: binding; conditions: Table 2, inhibitor potency by TR-FRET
Procedure: as §4

SMILES	ΔG (BRD2-BD2 [4]) [kcal/mol]	ΔH (BRD2-BD2 [4]) [kcal/mol]	−TΔS (BRD2-BD2 [4]) [kcal/mol]	Kd (BRD2-BD2 [4]) [µM]	ΔG (BRD2-BD1 [5]) [kcal/mol]	ΔH (BRD2-BD1 [5]) [kcal/mol]	−TΔS (BRD2-BD1 [5]) [kcal/mol]	Kd (BRD2-BD1 [5]) [µM]	Selectivity (2-1/2-2) (BRD2-BD2 [6])	IC50 (BRD2-BD2 [1]) [µM]	BD1/BD2 (BRD2-BD2 [1])	IC50 (BRD4-BD2) [µM]	IC50 (BRD2-BD1 [2]) [µM]	IC50 (BRD4-BD1) [µM]	IC50 (BRDT) [µM]	IC50 (BRD3-BD1) [µM]	also measured
COC(=O)c1ccc(N[C@@H]2C[C@H](C)N(C(C)=O)c3ccc(-c4cccc(NCCC(F)(F)F)c4)cc32)cc1 [compound 47]																	EC50 (HDMB03 cells; HD-MB03, Table 7, read-out: EC50 (μM) HDMB03): 0.35 µM; EC50 (MV-4-11): 0.008 µM; Kd (BRDT(1)): 0.021 µM; T(1)/T(2) (BRDT(2); BROMOscan KD ratio): 2.6; Kd (BRDT(2); BROMOscan, Table 10): 0.0081 µM; Kd (BRD2(1)): 0.041 µM; [2(1)/2(2)] (BRD2(2); BROMOscan KD ratio): 8.2; Kd (BRD2(2); BROMOscan, Table 10): 0.005 µM; [2(1)/2(2)] (BRD2-BD2 [1]; Table 6, ratio of EC50): 7.2; EC50 (BRD2-BD2 [1]; Table 6, read-out: EC50 (μM) BRD2(2)): 0.32 µM; EC50 (BRD2-BD1 [2]; Table 6, read-out: EC50 (μM) BRD2(1)): 2.3 µM; EC50 (BRDT; Table 6, head names no target, BRDT by comparison with Table 4, read-out: EC50): 5.8 µM; EC50 (BRD3-BD1; Table 6, read-out: EC50 (μM) BRD3(1)): 1.9 µM; Kd (BRD3(1)): 0.037 µM; 3(1)/3(2) (BRD3(2); BROMOscan KD ratio): 16.1; Kd (BRD3(2); BROMOscan, Table 10): 0.0023 µM; Kd (BRD4(1)): 0.032 µM; 4(1)/4(2) (BRD4(2); BROMOscan KD ratio): 11.4; Kd (BRD4(2); BROMOscan, Table 10): 0.0028 µM; EC50 ([3]; HD-MB03, Table 7, read-out: EC50 (μM) Myc-inhibition): 0.25 µM
CC(=O)N1c2ccc(-c3ccoc3)cc2[C@H](NC(=O)OC(C)C)C[C@@H]1C [compound 51]	-8.61	-6.31	-2.29	0.3	-8.96	-9.90	0.94	0.162	0.5	1.42	5	4.3	7.23	5.8	23	2.3	EC50 (HDMB03 cells; HD-MB03, HDMB03 cells, read-out: cell viability EC50): 3.3 µM; EC50 ([3]; HD-MB03, HDMB03 cells, read-out: c-Myc expression EC50): 1 µM
CC(=O)N1c2ccc(-c3cccs3)cc2[C@H](NC(=O)OC(C)C)C[C@@H]1C [compound 52]	-10.12	-7.18	-2.94	0.0209	-9.52	-8.27	-1.25	0.0613	2.9	0.34	5	3	1.68	> 77.8		1.2	
CC(=O)N1c2ccc(-c3ccsc3)cc2[C@H](NC(=O)OC(C)C)C[C@@H]1C [compound 53]	-10.25	-6.92	-3.33	0.0171	-9.43	-7.69	-1.74	0.0717	4.2	0.97	7	4.6	7.21	14		3.1	
CC(=O)N1c2ccc(-c3ccc[nH]3)cc2[C@H](NC(=O)OC(C)C)C[C@@H]1C [compound 54]	-9.82	-6.89	-2.92	0.0359	-9.08	-6.90	-2.18	0.131	3.7	> 48.6		8.5	1.55	1.7		5.6	
CC(=O)N1c2ccc(-c3cc[nH]c3)cc2[C@H](NC(=O)OC(C)C)C[C@@H]1C [compound 55]	-10.15	-7.01	-3.32	0.0199	-9.28	-7.33	-1.95	0.0915	4.6	0.37	5	1.2	1.71	1.3	49	0.26	
